Substitutions are numbered along the chain they refer to. Names and notes keep the numbering of the source. Like-named read-outs stand apart in the source and are kept apart here. Bounds are passed on as bounds.

From US7364882B1, “Enzymatic reduction of a nitrile containing compound to the corresponding amine” (State of Oregon Acting by and Through the State Board of …, priority 2004, dated 2008) come the findings set out here.

Common to all, as to type: biochemical
The subject of one data set is QueF. Description: QueF nitrile oxido-reductase assay, continuous UV monitoring of NADPH oxidation (preQ0 to preQ1). How it is done: PreQ0 oxido-reductase activity was determined using a number of redox cofactors, and activity was observed only in the presence of NADPH. […] […] Assays were run from 30 seconds to 2 hours.
To confirm that preQ1 was the reduced product as predicted, reaction assays were analyzed by reverse-phase HPLC (Bondclone 10 C-18, 300×3.9 mm) with a mobile phase of 20 mM ammonium actetate (pH 6.0) and methanol. With a flow-rate of 1 mL/min a series of linear gradients were developed from 20 mM ammonium acetate (pH 6.0) (buffer U) to 75% methanol in buffer U (buffer V) in the following manner (beginning time and ending time and linear increase to % V): 0-20.0 min, 0% V; 20.0-30.0 min, 8% V; 30.0-40.0 min, 20% V; 40.0-42.0 min, 100% V; 42.0-50.0 min, 100% V; and 50.0.0-52.0 min, 0% V. PreQ0 and preQ1 were detected with a diode array detector.

The nature of data set [1]: GTP cyclohydrolase activity assays (radiochemical [14C]formic acid release, fluorescence, HPLC). As to conditions: three assays, large screen of conditions (cyclohydrolase I, II, III). The text has this:
GTP cyclohydrolase activity was investigated using three different assays (radiochemical based release of [^14C]formic acid, fluorescence, or HPLC analysis of reactions) and a large screen of assay conditions (including those for cyclohydrolase I, II, and III activity).

Data set [2] is described as follows: standard nitrile oxido-reductase assay of B. subtilis QueF mutants. As to conditions: Glu98 substitution in SEQ ID NO: 2.
Method: Assays were typically carried out at 30° C. in a final volume of 80 μL in a solution of 50 mM HEPES (pH 7.5), 50 mM KCl, 1 mM DTT, 2-150 μM NADPH, 0.2-150 μM preQ0, and 10-1000 nM QueF. Assays were run from 30 seconds to 2 hours.

As to “reduced form of nicotinamide adenine dinucleotide phosphate [NADPH]”, the Michaelis constant (Km) in the data set on QueF (variable NADPH and constant, saturating preQ0, read-out: KM for NADPH) worked out at 36 µM.
On to `N#Cc1c[nH]c2nc(N)[nH]c(=O)c12` [preQ0, 7-cyano-7-deazaguanine], for which the Michaelis constant (Km) in the data set on QueF (read-out: KM for preQ0) is less than 1 µM. For the same molecule, the kcat in the data set on QueF (variable NADPH and constant, saturating preQ0) turned out to be 0.01 s⁻¹.
With `NCC1C=Nc2nc(N)[nH]c(=O)c21` (stereo not shown) [preQ1, 7-aminomethyl-7-deazaguanine], the “preQ0 generated when the reaction was run in reverse” value in the data set with QueF (reverse reaction with preQ1 and NADP+) was less than 1%.

B1: YqcD: E. coli QueF Class II protein, SEQ ID NO: 4 (protein)
chain: MSSYANHQALAGLTLGKSTDYRDTYDASLLQGVPRSLNRDPLGLKADNLPFHGTDIWTLYELSWLNAKGLPQVAVGHVELDYTSVNLIESKSFKLYLNSFNQTRFNNWDEVRQTLERDLSTCAQGKISVALYRLDELEGQPIGHFNGTCIDDQDITIDNYEFTTDYLENATCGEKVVEETLVSHLLKSNCLITHQPDWGSLQIQYRGRQIDREKLLRYLVSFRHHNEFHEQCVERIFNDLLRFCQPEKLSVYARYTRRGGLDINPWRSNSDFVPSTTRLVRQ
As to B1, the GTP cyclohydrolase activity entry in data set [1] is listed as “no GTP cyclohydrolase activity was detected”.

B2: E98M: QueF with substitution of Glu98 in SEQ ID NO: 2 to Met (protein)
chain: MTTRKESELEGVTLLGNQGTNYLFEYAPDVLESFPNKHVNRDYFVKFNCPEFTSLCPKTGQPDFATIYISYIPDEKMVESKSLKLYLFSFRNHGDFHMDCMNIIMNDLIELMDPRYIEVWGKFTPRGGISIDPYTNYGKPGTKYEKMAEYRMMNHDLYPETIDNR
In the case of B2, the “ability to reduce PreQ0” value in data set [2] is “significantly decreased”.

B3: YkvM: B. subtilis QueF Class I protein, SEQ ID NO: 2 (protein)
chain: B2 chain with M98E
As to B3, the GTP cyclohydrolase activity entry in data set [1] was “no GTP cyclohydrolase activity was detected”.

The Km is the concentration of substrate that gives half-maximal velocity. The kcat is the number of substrate molecules converted per active site and unit of time at saturation.
